From ChEMBL document CHEMBL4376829, “Discovery and biological evaluation of vinylsulfonamide derivatives as highly potent, covalent TEAD autopalmitoylation inhibitors” (Eur J Med Chem, 2019)

Tests used:
[1] = target: T1, Transcriptional enhancer factor TEF-3 (Homo sapiens, UniProt Q15561); experiment: Binding affinity to N-terminal His6-tagged human TEAD4-YBD (217 to 434 residues) expressed in Escherichia coli C43 (DE3) cells assessed as change in melting temperature at 1:1 ratio by SYPRO-dye based thermal shift assay
T1 sequence (Q15561 whole entry, the tested form may be a part): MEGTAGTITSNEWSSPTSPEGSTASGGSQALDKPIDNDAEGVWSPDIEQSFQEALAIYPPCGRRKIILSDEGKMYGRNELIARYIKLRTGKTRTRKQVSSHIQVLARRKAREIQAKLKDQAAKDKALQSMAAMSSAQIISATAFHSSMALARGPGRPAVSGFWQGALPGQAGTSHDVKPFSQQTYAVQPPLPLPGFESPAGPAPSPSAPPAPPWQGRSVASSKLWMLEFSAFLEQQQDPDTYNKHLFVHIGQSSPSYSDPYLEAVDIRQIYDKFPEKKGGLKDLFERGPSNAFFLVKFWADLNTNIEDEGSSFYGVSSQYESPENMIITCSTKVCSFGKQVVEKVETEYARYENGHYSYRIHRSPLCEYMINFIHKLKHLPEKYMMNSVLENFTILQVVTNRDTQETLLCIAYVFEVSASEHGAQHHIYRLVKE

[2] = target: T1, Transcriptional enhancer factor TEF-3; experiment: Binding affinity to N-terminal His6-tagged human TEAD4-YBD (217 to 434 residues) expressed in Escherichia coli C43 (DE3) cells assessed as change in melting temperature at 1:4 ratio by SYPRO-dye based thermal shift assay
[3] = test system: Transcriptional enhancer factor TEF-3 (Homo sapiens), Q15561 [C330A]; experiment: Binding affinity to TEAD4-YBD C330A mutant (unknown origin) assessed as change in melting temperature by SYPRO-dye based thermal shift assay
Transcriptional enhancer factor TEF-3 (Homo sapiens), Q15561 [C330A], sequence (Q15561 whole entry C330A): as the sequence (Q15561 whole entry, the tested form may be a part) above, with C330A counted along it

[4] = test system: Transcriptional enhancer factor TEF-3 (Homo sapiens), Q15561 [C410A]; experiment: Binding affinity to TEAD4-YBD C410A mutant (unknown origin) assessed as change in melting temperature by SYPRO-dye based thermal shift assay
Transcriptional enhancer factor TEF-3 (Homo sapiens), Q15561 [C410A], sequence (Q15561 whole entry C410A): as the sequence (Q15561 whole entry, the tested form may be a part) above, with C410A counted along it

[5] = target: Tyrosine-protein kinase JAK3 (Homo sapiens) (UniProt P52333); experiment: Inhibition of recombinant human JAK3 (781 to end residues) at 10 uM using GGEEEEYFELVKKKK as substrate measured after 40 mins in presence of [gamm33P]ATP by scintillation counting method relative to control
[6] = target: Tyrosine-protein kinase JAK2 (Homo sapiens) (UniProt O60674); experiment: Inhibition of recombinant human JAK2 (808 to end residues) at 10 uM using KTFCGTPEYLAPEVRREPRILSEEEQEMFRDFDYIADWC as substrate measured after 40 mins in presence of [gamm33P]ATP by scintillation counting method relative to control
[7] = target: Serine/threonine-protein kinase/endoribonuclease IRE1 (Homo sapiens) (UniProt O75460); experiment: Inhibition of recombinant human IRE1 (465 to end residues) at 10 uM using myelin basic protein as substrate measured after 40 mins in presence of [gamma33P]ATP by scintillation counting method relative to control
Serine/threonine-protein kinase/endoribonuclease IRE1 (Homo sapiens), sequence (O75460 19-977 limits assumed): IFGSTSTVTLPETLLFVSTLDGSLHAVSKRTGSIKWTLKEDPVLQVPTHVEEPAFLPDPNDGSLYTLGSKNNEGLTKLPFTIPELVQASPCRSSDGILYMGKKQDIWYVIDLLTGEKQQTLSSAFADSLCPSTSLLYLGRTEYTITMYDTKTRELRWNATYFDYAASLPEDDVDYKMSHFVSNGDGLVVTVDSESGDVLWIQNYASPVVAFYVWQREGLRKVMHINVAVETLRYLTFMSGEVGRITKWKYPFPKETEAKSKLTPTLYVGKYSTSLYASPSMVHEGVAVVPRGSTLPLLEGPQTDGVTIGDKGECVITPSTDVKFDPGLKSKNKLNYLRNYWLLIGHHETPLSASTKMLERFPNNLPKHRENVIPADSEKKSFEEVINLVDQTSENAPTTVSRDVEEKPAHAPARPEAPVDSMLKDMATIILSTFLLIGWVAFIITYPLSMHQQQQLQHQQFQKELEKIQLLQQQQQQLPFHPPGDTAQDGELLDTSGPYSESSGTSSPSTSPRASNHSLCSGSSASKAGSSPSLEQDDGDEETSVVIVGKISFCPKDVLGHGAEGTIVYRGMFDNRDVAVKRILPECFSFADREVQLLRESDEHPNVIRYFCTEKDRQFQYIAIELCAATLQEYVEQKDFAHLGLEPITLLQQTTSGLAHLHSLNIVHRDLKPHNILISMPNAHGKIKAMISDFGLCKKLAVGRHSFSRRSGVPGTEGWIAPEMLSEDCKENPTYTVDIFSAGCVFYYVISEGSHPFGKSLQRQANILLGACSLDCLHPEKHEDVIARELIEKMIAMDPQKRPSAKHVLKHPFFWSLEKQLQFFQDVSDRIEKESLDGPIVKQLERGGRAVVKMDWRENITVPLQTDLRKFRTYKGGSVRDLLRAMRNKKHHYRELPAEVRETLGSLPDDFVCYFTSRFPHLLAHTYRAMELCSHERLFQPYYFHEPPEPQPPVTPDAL

[8] = target: Mitogen-activated protein kinase kinase kinase 7 (Homo sapiens) (UniProt O43318); experiment: Inhibition of recombinant human TAK1 (1 to 303 residues) at 10 uM using casein as substrate measured after 40 mins in presence of [gamma33P]ATP by scintillation counting method relative to control
Mitogen-activated protein kinase kinase kinase 7 (Homo sapiens), sequence (O43318 whole entry, the tested form may be a part): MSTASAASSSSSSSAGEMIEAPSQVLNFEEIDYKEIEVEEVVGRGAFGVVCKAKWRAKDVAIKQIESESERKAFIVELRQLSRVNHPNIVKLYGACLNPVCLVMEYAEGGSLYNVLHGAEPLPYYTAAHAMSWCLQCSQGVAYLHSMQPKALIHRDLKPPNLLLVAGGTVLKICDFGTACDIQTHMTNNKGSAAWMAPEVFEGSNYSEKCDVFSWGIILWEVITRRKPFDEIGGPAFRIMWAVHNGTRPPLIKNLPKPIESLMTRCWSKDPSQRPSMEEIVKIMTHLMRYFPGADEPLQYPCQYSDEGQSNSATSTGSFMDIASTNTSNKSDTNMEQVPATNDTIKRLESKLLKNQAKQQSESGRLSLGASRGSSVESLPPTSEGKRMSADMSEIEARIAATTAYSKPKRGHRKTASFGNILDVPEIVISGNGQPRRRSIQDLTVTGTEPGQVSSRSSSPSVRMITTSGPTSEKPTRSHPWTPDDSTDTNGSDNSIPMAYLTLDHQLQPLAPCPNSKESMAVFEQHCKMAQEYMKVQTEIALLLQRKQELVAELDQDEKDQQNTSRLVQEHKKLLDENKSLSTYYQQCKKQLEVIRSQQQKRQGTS

[9] = target: Ribosomal protein S6 kinase alpha-2 (Homo sapiens) (UniProt Q15349); experiment: Inhibition of full length recombinant human Rsk3 at 10 uM using KKKNRTLSVA as substrate after 40 mins in presence of [gamma33P]ATP by scintillation counting method relative to control
Homo sapiens = species on record: Homo sapiens; experiment: Inhibition of human Ros V2262A mutant(1883 to end residues) at 10 uM using KKKSPGEYVNIEFG as substrate measured after 40 mins in presence of [gamma33P]ATP by scintillation counting method relative to control
[10] = target: Inhibitor of nuclear factor kappa-B kinase subunit alpha (Homo sapiens) (UniProt O15111); experiment: Inhibition of full length recombinant human IKKalpha at 10 uM after 40 mins in presence of [gamma33P]ATP by scintillation counting method relative to control
[11] = target: Insulin-like growth factor 1 receptor (Homo sapiens) (UniProt P08069); experiment: Inhibition of recombinant human IGF1R activated (959 to end residues) at 10 uM using KKKSPGEYVNIEF as substrate after 40 mins in presence of [gamma33P]ATP by scintillation counting method relative to control
[12] = target: Casein kinase I isoform delta (Homo sapiens) (UniProt P48730); experiment: Inhibition of recombinant human CK1delta (1 to 294 residues) at 10 uM using KRRRALS(p)VASLPGL as substrate measured after 40 mins in presence of [gamma33P]ATP by scintillation counting method relative to control
[13] = target: Platelet-derived growth factor receptor beta (Homo sapiens) (UniProt P09619); experiment: Inhibition of recombinant human PDGFRbeta (557 to end residues) at 10 uM using poly(Glu, Tyr) 4:1 as substrate measured after 40 mins in presence of [gamma33P]ATP by scintillation counting method relative to control
Platelet-derived growth factor receptor beta (Homo sapiens), sequence (P09619 whole entry): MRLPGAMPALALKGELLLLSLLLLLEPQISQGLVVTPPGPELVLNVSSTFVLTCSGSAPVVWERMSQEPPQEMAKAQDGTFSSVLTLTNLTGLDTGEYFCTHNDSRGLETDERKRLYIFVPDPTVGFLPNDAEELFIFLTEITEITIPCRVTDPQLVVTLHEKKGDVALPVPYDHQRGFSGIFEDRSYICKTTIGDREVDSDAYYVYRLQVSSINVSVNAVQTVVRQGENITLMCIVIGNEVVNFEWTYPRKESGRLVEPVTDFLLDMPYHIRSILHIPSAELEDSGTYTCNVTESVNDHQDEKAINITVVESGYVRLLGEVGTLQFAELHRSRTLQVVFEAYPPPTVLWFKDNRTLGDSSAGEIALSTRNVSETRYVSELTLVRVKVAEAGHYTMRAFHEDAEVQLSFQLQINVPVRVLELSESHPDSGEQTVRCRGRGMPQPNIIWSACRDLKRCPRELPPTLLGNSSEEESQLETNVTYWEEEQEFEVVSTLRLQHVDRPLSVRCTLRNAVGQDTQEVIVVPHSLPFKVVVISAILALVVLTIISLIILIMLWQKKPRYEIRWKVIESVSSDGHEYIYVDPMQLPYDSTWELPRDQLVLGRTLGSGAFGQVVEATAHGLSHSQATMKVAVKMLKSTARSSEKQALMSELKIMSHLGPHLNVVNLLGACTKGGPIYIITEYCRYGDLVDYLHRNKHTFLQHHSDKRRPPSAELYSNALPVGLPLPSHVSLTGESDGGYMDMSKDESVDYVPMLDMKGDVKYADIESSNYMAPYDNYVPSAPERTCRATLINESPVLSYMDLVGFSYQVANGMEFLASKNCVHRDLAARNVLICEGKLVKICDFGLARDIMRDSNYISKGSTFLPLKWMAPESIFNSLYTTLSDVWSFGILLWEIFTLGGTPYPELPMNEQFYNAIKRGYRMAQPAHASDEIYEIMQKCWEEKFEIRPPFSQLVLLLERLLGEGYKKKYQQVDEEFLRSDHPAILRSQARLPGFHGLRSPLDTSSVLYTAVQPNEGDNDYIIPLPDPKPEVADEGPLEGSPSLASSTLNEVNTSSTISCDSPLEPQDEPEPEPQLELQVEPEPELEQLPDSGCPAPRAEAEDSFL

[14] = target: Serine/threonine-protein kinase Nek2 (Homo sapiens) (UniProt P51955); experiment: Inhibition of recombinant human full length NEK2 at 10 uM using myelin basic protein as substrate incubated for 40 mins in presence of [gamma-33P]-ATP by scintillation counting method relative to control
[15] = target: Myosin-IIIb (Homo sapiens) (UniProt Q8WXR4); experiment: Inhibition of recombinant full-length human MYO3B (1 to 326 residues) at 10 uM using RLGRDKYKTLRQIRQ as substrate measured after 40 mins in presence of [gamma33P]ATP by scintillation counting method relative to control
[16] = target: Serine/threonine-protein kinase mTOR (Homo sapiens) (UniProt P42345); experiment: Inhibition of recombinant full-length human mTOR at 10 uM after 40 mins in presence of [gamma33P]ATP by scintillation counting analysis relative to control
Saccharomyces cerevisiae = experiment: Inhibition of recombinant fungi CK1 (2 to 298 residues) at 10 uM using KRRRALS(p)VAS as substrate incubated for 40 mins in presence of [gamma-33P]-ATP by scintillation counting method relative to control
[17] = target: CDK3/Cyclin E (Homo sapiens) (UniProt P24864+Q00526); experiment: Inhibition of recombinant full-length human CDK3/cyclinE at 10 uM using histone H1 as substrate measured after 40 mins in presence of [gamma33P]ATP by scintillation counting method relative to control; format: protein-complex assay
[18] = target: CDC7/Cyclin B1 (Homo sapiens) (UniProt P14635+O00311); experiment: Inhibition of full-length recombinant human Cdc7/CyclinB1 at 10 uM using histone H1 as substrate after 120 mins by in presence of [gamma33P]ATP by scintillation counting method relative to control; format: protein-complex assay
CDC7/Cyclin B1 (Homo sapiens), sequence (O00311 whole entry, looked up): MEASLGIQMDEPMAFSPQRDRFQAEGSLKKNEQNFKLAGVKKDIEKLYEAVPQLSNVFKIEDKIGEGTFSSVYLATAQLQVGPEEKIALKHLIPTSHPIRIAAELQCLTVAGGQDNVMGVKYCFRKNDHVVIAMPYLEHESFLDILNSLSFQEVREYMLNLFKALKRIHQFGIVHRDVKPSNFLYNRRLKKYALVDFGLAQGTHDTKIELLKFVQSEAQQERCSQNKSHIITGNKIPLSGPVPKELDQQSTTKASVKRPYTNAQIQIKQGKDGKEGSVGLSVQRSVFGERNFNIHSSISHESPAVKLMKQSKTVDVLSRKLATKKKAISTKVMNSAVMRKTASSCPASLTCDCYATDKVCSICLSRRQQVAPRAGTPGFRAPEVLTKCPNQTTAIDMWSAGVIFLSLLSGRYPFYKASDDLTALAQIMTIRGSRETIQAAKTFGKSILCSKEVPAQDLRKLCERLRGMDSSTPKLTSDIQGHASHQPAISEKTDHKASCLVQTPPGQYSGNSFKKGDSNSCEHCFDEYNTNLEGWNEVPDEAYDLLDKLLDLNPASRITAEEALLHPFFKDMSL
CDC7/Cyclin B1 (Homo sapiens), sequence (P14635 whole entry, looked up): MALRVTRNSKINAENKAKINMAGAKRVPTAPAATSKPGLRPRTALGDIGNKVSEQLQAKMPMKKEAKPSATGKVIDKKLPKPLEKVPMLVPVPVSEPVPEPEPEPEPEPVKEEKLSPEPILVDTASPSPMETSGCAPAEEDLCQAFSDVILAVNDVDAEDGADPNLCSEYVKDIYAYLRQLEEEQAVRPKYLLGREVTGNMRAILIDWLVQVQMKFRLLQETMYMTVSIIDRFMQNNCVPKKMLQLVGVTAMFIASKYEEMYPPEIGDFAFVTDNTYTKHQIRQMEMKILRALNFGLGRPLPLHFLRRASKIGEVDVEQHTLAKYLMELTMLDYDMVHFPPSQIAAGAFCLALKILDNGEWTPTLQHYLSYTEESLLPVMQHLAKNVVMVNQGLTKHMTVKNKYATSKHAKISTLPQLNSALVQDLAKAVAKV

[19] = target: Leukocyte tyrosine kinase receptor (Homo sapiens) (UniProt P29376); experiment: Inhibition of recombinant human LTK (450 to end residues) at 10 uM using GEEPLYWSFPAKKK as substrate measured after 40 mins in presence of [gamma33P]ATP by scintillation counting method relative to control
[20] = target: Cytoplasmic tyrosine-protein kinase BMX (Homo sapiens) (UniProt P51813); experiment: Inhibition of full-length recombinant human BMX at 10 uM using poly(Glu, Tyr) 4:1 as substrate measured after 40 mins in presence of [gamma33P]ATP by scintillation counting method relative to control
Cytoplasmic tyrosine-protein kinase BMX (Homo sapiens), sequence (P51813 whole entry): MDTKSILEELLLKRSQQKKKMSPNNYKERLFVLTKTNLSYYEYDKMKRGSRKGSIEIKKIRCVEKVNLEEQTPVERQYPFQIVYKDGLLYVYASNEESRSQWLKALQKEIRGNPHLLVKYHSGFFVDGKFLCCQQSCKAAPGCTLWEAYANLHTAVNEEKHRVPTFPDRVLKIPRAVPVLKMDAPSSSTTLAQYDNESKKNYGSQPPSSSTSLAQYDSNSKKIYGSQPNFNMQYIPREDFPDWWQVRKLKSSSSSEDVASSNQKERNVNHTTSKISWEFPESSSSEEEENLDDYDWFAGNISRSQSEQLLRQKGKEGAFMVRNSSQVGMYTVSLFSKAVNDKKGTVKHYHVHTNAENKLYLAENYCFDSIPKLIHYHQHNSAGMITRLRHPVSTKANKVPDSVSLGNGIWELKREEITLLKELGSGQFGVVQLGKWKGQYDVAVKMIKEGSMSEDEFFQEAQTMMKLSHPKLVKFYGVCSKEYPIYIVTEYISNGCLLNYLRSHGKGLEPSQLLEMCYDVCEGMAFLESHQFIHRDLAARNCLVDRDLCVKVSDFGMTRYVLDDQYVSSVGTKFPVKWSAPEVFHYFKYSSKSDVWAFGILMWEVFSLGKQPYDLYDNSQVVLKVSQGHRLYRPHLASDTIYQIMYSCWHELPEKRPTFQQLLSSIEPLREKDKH

[21] = target: Tyrosine-protein kinase ABL1 (Homo sapiens) (UniProt P00519); experiment: Inhibition of human Abl (27 to end residues) at 10 uM using EAIYAAPFAKKK as substrate after 40 mins in presence of [gamma33P]ATP by scintillation counting method relative to control
[22] = target: CREB-binding protein (Homo sapiens) (UniProt Q92793); experiment: Inhibition of human CBP-BRD at 10 uM relative to control

## C=CS(=O)(=O)Nc1ccc(Cc2ccc3ccccc3c2)cc1
[1]
  ΔTm: 7 to 7.2 °C
[2]
  ΔTm: 7.5 °C
[3]
  ΔTm: 6.4 °C
[4]
  ΔTm: 7.3 °C
[5]
  inhibition: 5%
[6]
  inhibition: 6%
[7]
  inhibition: -4%
[8]
  inhibition: 5%
[9]
  inhibition: 9%
Homo sapiens
  inhibition: -6%
[10]
  inhibition: -2%
[11]
  inhibition: 16%
[12]
  inhibition: 3%
[13]
  inhibition: 3%
[14]
  inhibition: -5%
[15]
  inhibition: 1%
[16]
  inhibition: 5%
Saccharomyces cerevisiae
  inhibition: 5%
[17]
  inhibition: 7%
[18]
  inhibition: 21%
[19]
  inhibition: 7%
[20]
  inhibition: 19%
[21]
  inhibition: 7%
[22]
  inhibition: 10%
